Molecules are shown by their SMILES. Active and inactive are the calls of the source. No cut-off for these calls is given here.

In assay [1] the test system is Hepacivirus hominis. Nature of the assay: Inhibition of recombinant hepatitis C virus NS3 helicase domain NTPase activity at 400 uM by TLC in presence of poly(U).
Assay [2] can be described thus: Inhibition of recombinant hepatitis C virus NS3 helicase domain NTPase activity by TLC in presence of poly(U). Set-up: species or system Hepacivirus hominis.
Assay [3] concerns Hepacivirus hominis. Kind of assay: Inhibition of recombinant hepatitis C virus NS3 helicase domain NTPase activity by TLC.
Assay [4] has as its system Hepacivirus hominis. Kind of assay: Enhancement of binding efficacy between compound-treated recombinant hepatitis C virus NS3 helicase and 32P-labelled SM1 DNA duplex after 10 mins.
Assay [5] deals with Hepacivirus hominis. Nature of the assay: Inhibition of recombinant hepatitis C virus NS3 helicase domain assessed as the enzyme concentration at which a half of compound molecules are bound by PTI spectrofluorimetry.
The test system of assay [6] is Hepacivirus hominis. Kind of assay: Inhibition of recombinant hepatitis C virus NS3 helicase domain by PTI spectrofluorimetry.
Assay [7] is described as follows: Inhibition of recombinant hepatitis C virus NS3 helicase domain using RNA duplex rSM2 labelled with [gamma-32P]ATP as substrate after 30 mins. Set-up: species or system Hepacivirus hominis.
A short description of assay [8]: Inhibition of recombinant hepatitis C virus NS3 helicase domain using DNA duplex SM2 labelled with [gamma-32P]ATP as substrate after 30 mins. Also noted: species or system Hepacivirus hominis.
Assay [9] can be described thus: Inhibition of recombinant hepatitis C virus NS3 helicase domain using DNA duplex S(DB11) labelled with [gamma-32P]ATP as substrate after 30 mins. Set-up: species or system Hepacivirus hominis.
Assay [10] in a line: Inhibition of recombinant hepatitis C virus NS3 helicase domain using DNA duplex S(DB2)b labelled with [gamma-32P]ATP as substrate after 30 mins. Set-up: species or system Hepacivirus hominis.
The nature of assay [11]: Inhibition of recombinant hepatitis C virus NS3 helicase domain using DNA duplex S(DB2)a labelled with [gamma-32P]ATP as substrate after 30 mins. Set-up: species or system Hepacivirus hominis.
Assay [12] is described as follows: Inhibition of recombinant hepatitis C virus NS3 helicase domain using DNA duplex SM1 labelled with [gamma-32P]ATP as substrate after 30 mins. Also noted: species or system Hepacivirus hominis.
The nature of assay [13]: Inhibition of recombinant hepatitis C virus NS3 helicase domain using DNA duplex S1 labelled with [gamma-32P]ATP as substrate after 30 mins. Also noted: species or system Hepacivirus hominis.
Assay [14] has as its system Hepacivirus hominis. Kind of assay: Inhibition of recombinant hepatitis C virus NS3 helicase domain using DNA duplex S(DB11) labelled with [gamma-32P]ATP as substrate up to 400 after 30 mins.
Assay [15] has as its system Hepacivirus hominis. Nature of the assay: Inhibition of recombinant hepatitis C virus NS3 helicase domain using DNA duplex S(DB2)b labelled with [gamma-32P]ATP as substrate up to 400 after 30 mins.
The test system of assay [16] is Hepacivirus hominis. Kind of assay: Inhibition of recombinant hepatitis C virus NS3 helicase domain using DNA duplex S(DB2)a labelled with [gamma-32P]ATP as substrate up to 400 after 30 mins.
Assay [17] deals with Hepacivirus hominis. Nature of the assay: Inhibition of recombinant hepatitis C virus NS3 helicase domain using DNA duplex SM1 labelled with [gamma-32P]ATP as substrate up to 400 after 30 mins.
The test system of assay [18] is Hepacivirus hominis. Kind of assay: Inhibition of recombinant hepatitis C virus NS3 helicase domain using DNA duplex S1 labelled with [gamma-32P]ATP as substrate up to 400 after 30 mins.

The IC50 is the concentration needed to halve the response being measured. Consider `CN1CCN(c2ccc3nc(-c4ccc5nc(CNC(=O)CCCCCCCCCCCC(=O)NCc6nc7ccc(-c8nc9ccc(N%10CCN(C)CC%10)cc9[nH]8)cc7[nH]6)[nH]c5c4)[nH]c3c2)CC1`, for which the inhibition result in [1] and in [3] was “inactive” throughout. The IC50 in assay [2] turned out to be 20 µM; in [7], 1.4 µM; in assay [8] it was 9 µM; in assay [9], 8 µM; in assay [10] it was 12 µM; in assay [11], 7 µM. Further, the IC50 in assay [12] stood at 7 µM; in assay [13] it was 10 µM. Moreover, in [4], the outcome was Active. In assay [5], the Activity was found to be 7.3 µM. Moreover, the inhibition result in [6] is “Active”.
For the molecule `CN1CCN(c2ccc3nc(-c4ccc5nc(CNC(=O)CCCCCCCC(=O)NCc6nc7ccc(-c8nc9ccc(N%10CCN(C)CC%10)cc9[nH]8)cc7[nH]6)[nH]c5c4)[nH]c3c2)CC1`, in assay [3], the inhibition result was “inactive”. The IC50 was 140 µM in assay [9]; 140 µM in assay [10]; 150 µM in assay [11]; 210 µM in [12]; above 100 µM in assay [13].
As for `CN(CCCOc1ccc(-c2nc3ccc(-c4nc5ccc(N6CCN(C)CC6)cc5[nH]4)cc3[nH]2)cc1)CCCOc1ccc(-c2nc3ccc(-c4nc5ccc(N6CCN(C)CC6)cc5[nH]4)cc3[nH]2)cc1`, the inhibition entry in [3] is “inactive”. Besides, the IC50 in [9] came out at 15 µM; in assay [10], 10 µM; in assay [11], 12 µM; in [12], 18 µM; in [13] it was 5 µM.
`CN1CCN(c2ccc3nc(-c4ccc5nc(CNC(=O)CCCCCC(=O)NCc6nc7ccc(-c8nc9ccc(N%10CCN(C)CC%10)cc9[nH]8)cc7[nH]6)[nH]c5c4)[nH]c3c2)CC1`: the inhibition result in [3] was “inactive”. The IC50 in [9] was 160 µM; in assay [10], 200 µM; in [11], 150 µM; in assay [12], 225 µM; in [13], above 100 µM.
Take `CN1CCN(c2ccc3nc(-c4ccc5nc(CNC(=O)CCCC(=O)NCc6nc7ccc(-c8nc9ccc(N%10CCN(C)CC%10)cc9[nH]8)cc7[nH]6)[nH]c5c4)[nH]c3c2)CC1`: the inhibition result in [3] was “inactive”. Besides, the IC50 in assay [9] was 230 µM; in assay [10] it was 250 µM; in [11], 220 µM; in assay [12] it was 235 µM; in [13], above 100 µM.
Consider `CN1CCN(c2ccc3nc(-c4ccc5nc(CNC(=O)CCC(=O)NCc6nc7ccc(-c8nc9ccc(N%10CCN(C)CC%10)cc9[nH]8)cc7[nH]6)[nH]c5c4)[nH]c3c2)CC1`, for which the inhibition result in [1], in [3] and in assay [6] was “inactive” throughout. Moreover, the IC50 in assay [2] is 280 µM; in [7], 38 µM; in assay [8], 240 µM; in assay [9], 240 µM; in assay [10], 260 µM; in assay [11] it was 250 µM. In addition, the values for the IC50 in assay [12] and in assay [13] were 230 µM and above 100 µM, respectively. For the same molecule, in [4], the result was inactive. For the same molecule, the Activity in assay [5] is 51 µM.
Turning to `CN1CCN(c2ccc3nc(-c4ccc5nc(CNC(=O)CCCCC(=O)NCc6nc7ccc(-c8nc9ccc(N%10CCN(C)CC%10)cc9[nH]8)cc7[nH]6)[nH]c5c4)[nH]c3c2)CC1`, the inhibition entry in assay [3] is “inactive”. For the same molecule, the IC50 in [9] turned out to be 170 µM; in [10], 240 µM; in assay [11], 150 µM; in assay [12], 230 µM.
Regarding `CC(=O)NCc1nc2ccc(-c3nc4ccc(N5CCN(C)CC5)cc4[nH]3)cc2[nH]1`, the inhibition result in [3], in [14], in assay [15], in assay [16], in assay [17] and in [18] was “inactive” each time.
`CN1CCN(c2ccc3[nH]c(-c4ccc5[nH]c(-c6ccc(O)cc6)nc5c4)nc3c2)CC1`: the inhibition result in assay [3], in assay [14], in assay [15], in assay [16], in assay [17] and in assay [18] was “inactive” each time.
